Numbers after ± are expanded uncertainties.
Assay: an = ratio of the nth substance listed
Settings: 101 kPa, Liquid, Vibrating tube method

Row | SMILES | mass density (313.15 K, a1 = 0.75) [kg/m3] | mass density (293.15 K, a1 = 0.5) [kg/m3] | mass density (293.15 K, a1 = 0.75) [kg/m3] | mass density (313.15 K, a1 = 0.5) [kg/m3] | mass density (333.15 K, a1 = 0.5) [kg/m3] | mass density (333.15 K, a1 = 0.75) [kg/m3]
1 | Cn1cc[n+](C)c1.F[B-](F)(F)F [1,3-dimethyl-1H-imidazolium tetrafluoroborate] + O | 1098.4 ± 0.3 | – | – | – | – | –
2 | Cn1cc[n+](C)c1.[Cl-] [1,3-dimethylimidazolium chloride] + O | 1096.1 ± 0.3 | – | – | – | – | –
3 | COP(=O)([O-])OC.Cn1cc[n+](C)c1 [1,3-dimethylimidazolium dimethylphosphate] + O | 1104.1 ± 0.2 | 1086.4 ± 0.2 | 1112.3 ± 0.3 | 1076.8 ± 0.2 | 1076.6 ± 0.2 | 1103.3 ± 0.2

Source: the NIST ThermoML archive (doi:10.1021/je400109a)
